Test results published in publication PMC7339578, “Multiple circulating alkaloids and saponins from intravenous Kang-Ai injection inhibit human cytochrome P450 and UDP-glucuronosyltransferase isozymes: potential drug–drug interactions” (Chinese Medicine, 2020).
Where two headings read alike, the source gives them in different places.

Columns and labels:
Format in all cases: in vitro ADME
[1] = target: T1, UGT1A1 (Homo sapiens, UniProt P22309); test: Inhibition of expressed UGT1A1 (probe β-estradiol)
T1 sequence (P22309 26-533): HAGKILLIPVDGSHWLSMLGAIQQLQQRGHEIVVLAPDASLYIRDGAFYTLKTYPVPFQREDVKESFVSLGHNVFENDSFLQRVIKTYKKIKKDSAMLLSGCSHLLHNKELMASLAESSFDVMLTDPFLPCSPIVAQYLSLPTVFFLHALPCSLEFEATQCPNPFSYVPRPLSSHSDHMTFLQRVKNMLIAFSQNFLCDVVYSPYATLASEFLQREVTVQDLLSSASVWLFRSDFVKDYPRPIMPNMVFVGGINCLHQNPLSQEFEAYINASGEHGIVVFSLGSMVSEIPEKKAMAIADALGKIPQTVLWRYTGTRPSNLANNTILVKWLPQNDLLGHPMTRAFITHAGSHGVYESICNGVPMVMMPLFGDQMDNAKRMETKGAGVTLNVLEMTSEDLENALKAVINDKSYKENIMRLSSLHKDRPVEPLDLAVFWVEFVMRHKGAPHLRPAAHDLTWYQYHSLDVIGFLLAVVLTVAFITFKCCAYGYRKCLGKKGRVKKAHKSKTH
Procedure: After centrifugation (13,800g, 10 min), the supernatant (8 μL) was obtained for determination by UHPLC system.
Similarly, β-estradiol (60 μM), propofol (40 μM) and 4-MU (350 μM) were typically used as the substrates for UGT1A1, 1A9 and 2B7, respectively. After optimization of incubation conditions (Additional file 1: Fig. S2), the protein concentrations for UGT1A1, 1A9, and 2B7 were 0.125, 0.05, and 0.05 mg/mL, respectively.

[2] = target: T2, CYP2B6 (Homo sapiens, UniProt P20813); test: Inhibition of recombinant CYP2B6 (probe bupropion); conditions: recombinant isozyme; mean ± SD of triplicate; unit not given (IC50 classes in μM); read-out: IC50 towards CYP2B6
T2 sequence (P20813 1-491): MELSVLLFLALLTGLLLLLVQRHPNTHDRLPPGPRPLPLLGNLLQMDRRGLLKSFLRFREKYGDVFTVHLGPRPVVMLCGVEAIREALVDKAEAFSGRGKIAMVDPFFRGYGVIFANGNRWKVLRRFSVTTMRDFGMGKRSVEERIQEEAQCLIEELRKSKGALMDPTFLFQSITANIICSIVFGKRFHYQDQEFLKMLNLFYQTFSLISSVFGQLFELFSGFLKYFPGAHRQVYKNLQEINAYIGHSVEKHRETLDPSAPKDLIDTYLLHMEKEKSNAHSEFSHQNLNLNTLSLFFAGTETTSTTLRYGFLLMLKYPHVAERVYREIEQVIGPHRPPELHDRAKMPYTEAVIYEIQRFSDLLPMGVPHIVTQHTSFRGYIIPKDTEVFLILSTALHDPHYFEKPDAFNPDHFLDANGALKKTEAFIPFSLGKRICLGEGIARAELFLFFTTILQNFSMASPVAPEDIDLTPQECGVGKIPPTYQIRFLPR
Procedure: (§1) In this study, phenacetin (100 μM), coumarin (100 μM), bupropion (100 μM), paclitaxel (60 μM), tolbutamide (200 μM), mephenytoin (100 μM), chlorzoxazone (200 μM) and nifedipine (40 μM) have been used as the probe substrates for CYP1A2, 2A6, 2B6, 2C8, 2C9, 2C19, 2E1 and 3A4, respectively.

[3] = target: CYP2C19 (Homo sapiens, UniProt P33261); test: Inhibition of recombinant CYP2C19 (probe mephenytoin); conditions: recombinant isozyme; mean ± SD of triplicate; unit not given (IC50 classes in μM); read-out: IC50 towards CYP2C19
Procedure: as §1

[4] = target: CYP2C9 (Homo sapiens, UniProt P11712); test: Inhibition of recombinant CYP2C9 (probe tolbutamide); conditions: recombinant isozyme; mean ± SD of triplicate; unit not given (IC50 classes in μM); read-out: IC50 towards CYP2C9
Procedure: as §1

[5] = target: T3, CYP1A2 (Homo sapiens, UniProt P05177); test: Inhibition of recombinant CYP1A2 (probe phenacetin); conditions: recombinant isozyme; mean ± SD of triplicate; unit not given (IC50 classes in μM); read-out: IC50 towards CYP1A2
T3 construct: purchased Corning Biosciences 456203
T3 sequence (P05177 1-516): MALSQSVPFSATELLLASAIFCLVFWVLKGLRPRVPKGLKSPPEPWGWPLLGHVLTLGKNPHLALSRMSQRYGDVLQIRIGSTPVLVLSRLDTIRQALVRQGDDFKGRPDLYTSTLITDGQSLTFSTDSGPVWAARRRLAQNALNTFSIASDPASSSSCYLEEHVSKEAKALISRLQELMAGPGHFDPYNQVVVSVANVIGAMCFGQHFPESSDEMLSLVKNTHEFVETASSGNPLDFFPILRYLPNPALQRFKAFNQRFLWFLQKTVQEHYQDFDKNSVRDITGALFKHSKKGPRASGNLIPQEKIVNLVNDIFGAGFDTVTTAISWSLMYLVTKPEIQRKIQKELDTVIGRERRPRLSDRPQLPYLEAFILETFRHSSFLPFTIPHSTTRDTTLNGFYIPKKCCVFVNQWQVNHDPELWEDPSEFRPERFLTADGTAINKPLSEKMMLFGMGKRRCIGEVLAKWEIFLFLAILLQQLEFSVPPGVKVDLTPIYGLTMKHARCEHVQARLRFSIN
Procedure: as §1

[6] = target: CYP3A4 (Homo sapiens, UniProt P08684); test: Inhibition of recombinant CYP3A4 (probe nifedipine); conditions: recombinant isozyme; mean ± SD of triplicate; unit not given (IC50 classes in μM); read-out: IC50 towards CYP3A4
Procedure: as §1

[7] = Stability tests of analytes in rat plasma QC samples; conditions: rat plasma
Procedure: […] The dilution integrity was investigated by analyzing six replicate samples with each analyte, and each analyte were diluted 10-fold with blank rat matrix. Furthermore, the diluted samples were analyzed using freshly prepared calibration curve to calculate RE and RSD, which should be no more than ± 15% as criterion.

[8] = recombinant isozyme, mean ± SD of triplicate, unit not given (IC50 classes in μM), read-out: IC50 towards UGT1A1

Sequence of CYP2C9 (P11712 whole entry): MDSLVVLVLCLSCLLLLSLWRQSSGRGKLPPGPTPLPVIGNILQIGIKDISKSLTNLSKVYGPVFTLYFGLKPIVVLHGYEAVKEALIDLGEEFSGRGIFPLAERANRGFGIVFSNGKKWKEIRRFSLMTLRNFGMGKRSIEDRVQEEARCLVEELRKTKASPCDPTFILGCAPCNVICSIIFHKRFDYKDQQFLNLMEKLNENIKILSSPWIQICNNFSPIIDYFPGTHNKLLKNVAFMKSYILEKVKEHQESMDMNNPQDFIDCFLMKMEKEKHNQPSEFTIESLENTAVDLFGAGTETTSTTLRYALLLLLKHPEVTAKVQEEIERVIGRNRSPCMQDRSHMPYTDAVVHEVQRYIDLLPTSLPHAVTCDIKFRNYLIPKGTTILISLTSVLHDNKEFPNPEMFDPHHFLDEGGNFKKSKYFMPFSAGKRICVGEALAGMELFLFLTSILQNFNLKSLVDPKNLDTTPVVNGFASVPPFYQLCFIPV
Sequence of CYP3A4 (P08684 whole entry): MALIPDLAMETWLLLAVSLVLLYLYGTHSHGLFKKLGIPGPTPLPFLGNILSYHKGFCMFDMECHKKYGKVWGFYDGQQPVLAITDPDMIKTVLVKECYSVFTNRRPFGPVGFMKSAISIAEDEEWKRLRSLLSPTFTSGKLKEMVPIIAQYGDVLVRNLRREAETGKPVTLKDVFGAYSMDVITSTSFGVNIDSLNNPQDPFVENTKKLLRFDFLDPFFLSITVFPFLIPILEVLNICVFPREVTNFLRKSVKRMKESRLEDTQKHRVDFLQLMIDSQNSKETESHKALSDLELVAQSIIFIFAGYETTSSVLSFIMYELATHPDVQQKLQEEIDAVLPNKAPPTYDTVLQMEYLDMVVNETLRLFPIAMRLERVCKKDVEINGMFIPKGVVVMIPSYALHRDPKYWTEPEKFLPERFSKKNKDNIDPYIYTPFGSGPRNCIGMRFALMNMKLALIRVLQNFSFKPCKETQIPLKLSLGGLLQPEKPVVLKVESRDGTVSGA
Sequence of CYP2C19 (P33261 whole entry): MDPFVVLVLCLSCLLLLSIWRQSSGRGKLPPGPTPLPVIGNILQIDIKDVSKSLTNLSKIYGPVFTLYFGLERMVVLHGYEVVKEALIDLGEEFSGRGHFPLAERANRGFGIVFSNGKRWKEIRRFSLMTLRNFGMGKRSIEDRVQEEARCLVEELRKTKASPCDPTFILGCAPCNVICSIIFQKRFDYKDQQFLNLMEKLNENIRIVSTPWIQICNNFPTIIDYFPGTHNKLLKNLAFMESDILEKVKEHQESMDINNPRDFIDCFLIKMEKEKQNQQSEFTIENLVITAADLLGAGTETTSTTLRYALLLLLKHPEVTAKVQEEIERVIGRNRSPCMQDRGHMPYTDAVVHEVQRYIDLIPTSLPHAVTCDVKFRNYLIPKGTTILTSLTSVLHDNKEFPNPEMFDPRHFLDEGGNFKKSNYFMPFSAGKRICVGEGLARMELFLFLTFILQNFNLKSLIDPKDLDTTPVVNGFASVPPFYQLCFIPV

| SMILES | IC50 [1, 8] [µM] | IC50 [2] [µM] | IC50 [3] [µM] | IC50 [4] [µM] | IC50 [5] [µM] | IC50 [6] [µM] | At -80 °C for 48 h, Mean±SD ([7]; nominal conc. 40 nM) [nM] | At -80 °C for 48 h, RE ([7]; nominal conc. 40 nM) [%] | Extracted samples at 8 °C for 18 h, Mean±SD ([7]; nominal conc. 40 nM) [nM] | Extracted samples at 8 °C for 18 h, RE ([7]; nominal conc. 40 nM) [%] | Short-term stability at room temperature for 6 h, Mean±SD ([7]; nominal conc. 40 nM) [nM] | Short-term stability at room temperature for 6 h, RE ([7]; nominal conc. 40 nM) [%] | Three freeze-thaw cycles (-80 °C ↔ 23 °C), Mean±SD ([7]; nominal conc. 40 nM) [nM] | Three freeze-thaw cycles (-80 °C ↔ 23 °C), RE ([7]; nominal conc. 40 nM) [%] | At -80 °C for 48 h, Mean±SD ([7]; nominal conc. 200 nM) [nM] | At -80 °C for 48 h, RE ([7]; nominal conc. 200 nM) [%] | Extracted samples at 8 °C for 18 h, Mean±SD ([7]; nominal conc. 200 nM) [nM] | Extracted samples at 8 °C for 18 h, RE ([7]; nominal conc. 200 nM) [%] | Short-term stability at room temperature for 6 h, Mean±SD ([7]; nominal conc. 200 nM) [nM] | Short-term stability at room temperature for 6 h, RE ([7]; nominal conc. 200 nM) [%] | also measured |
| --- | --- | --- | --- | --- | --- | --- | --- | --- | --- | --- | --- | --- | --- | --- | --- | --- | --- | --- | --- | --- | --- |
| CC(C)=CCC[C@](C)(O[C@@H]1O[C@H](CO)[C@@H](O)[C@H](O)[C@H]1O)[C@H]1CC[C@]2(C)[C@@H]1[C@H](O)C[C@@H]1[C@@]3(C)CC[C@H](O)C(C)(C)[C@@H]3[C@@H](O[C@@H]3O[C@H](CO)[C@@H](O)[C@H](O)[C@H]3O[C@@H]3O[C@@H](C)[C@H](O)[C@@H](O)[C@H]3O)C[C@]12C [Compound C9, Ginsenoside Re] | > 100 | > 100 | > 100 | > 100 | > 100 | > 100 | 37.07 ± 2.41 | -12.37 | 39.68 ± 3.10 | -8.46 | 42.26 ± 4.77 | 12.91 | 39.18 ± 1.53 | -5.32 | 181.77 ± 7.39 | -12.74 | 193.91 ± 26.18 | -12.50 | 175.60 ± 2.61 | -13.13 | Three freeze-thaw cycles (-80 °C ↔ 23 °C), Mean±SD ([7]; nominal conc. 200 nM): 205.17 ± 19.51 nM; Three freeze-thaw cycles (-80 °C ↔ 23 °C), RE ([7]; nominal conc. 200 nM): 11.83%; At -80 °C for 48 h, Mean±SD ([7]; nominal conc. 800 nM): 836.79 ± 51.65 nM; At -80 °C for 48 h, RE ([7]; nominal conc. 800 nM): 10.56%; Extracted samples at 8 °C for 18 h, Mean±SD ([7]; nominal conc. 800 nM): 827.44 ± 80.86 nM; Extracted samples at 8 °C for 18 h, RE ([7]; nominal conc. 800 nM): 12.75%; Short-term stability at room temperature for 6 h, Mean±SD ([7]; nominal conc. 800 nM): 724.25 ± 14.79 nM; Short-term stability at room temperature for 6 h, RE ([7]; nominal conc. 800 nM): -11.32%; Three freeze-thaw cycles (-80 °C ↔ 23 °C), Mean±SD ([7]; nominal conc. 800 nM): 818.48 ± 84.93 nM; Three freeze-thaw cycles (-80 °C ↔ 23 °C), RE ([7]; nominal conc. 800 nM): 12.80% |
| CC(C)=CCC[C@](C)(O[C@@H]1O[C@H](CO)[C@@H](O)[C@H](O)[C@H]1O)[C@H]1CC[C@]2(C)[C@@H]1[C@H](O)C[C@@H]1[C@@]3(C)CC[C@H](O)C(C)(C)[C@@H]3[C@@H](O[C@@H]3O[C@H](CO)[C@@H](O)[C@H](O)[C@H]3O)C[C@]12C [Compound C6, Ginsenoside Rg1] | 92.2 ± 40 | > 100 | > 100 | > 100 | > 100 | > 100 | 37.29 ± 1.37 | -10.20 | 35.69 ± 0.56 | -12.18 | 38.60 ± 1.14 | -6.74 | 39.64 ± 2.41 | -7.72 | 209.85 ± 12.74 | 10.34 | 197.72 ± 17.37 | 8.81 | 204.22 ± 5.64 | 4.83 | inhibition type (smallest AIC and SC) ([1]; UGT1A1): competitive inhibition; Ki ([1]; UGT1A1, competitive model): 141 ± 10.5 µM; Ki ([1]; UGT1A1, mixed-type model): 147 ± 29.9 µM; α ([1]; UGT1A1, mixed-type model): 8.3 ± 37.2; Ki ([1]; UGT1A1, noncompetitive model): 187 ± 12.7 µM; Cmax/Ki ([I]/Ki) ([1]; UGT1A1, selected model, rat plasma Cmax): 0.01; IC50 ([1]; β-estradiol 60 μM, read-out: IC50 against UGT1A1): 92.2 µM; Three freeze-thaw cycles (-80 °C ↔ 23 °C), Mean±SD ([7]; nominal conc. 200 nM): 189.03 ± 9.20 nM; Three freeze-thaw cycles (-80 °C ↔ 23 °C), RE ([7]; nominal conc. 200 nM): -10.01%; At -80 °C for 48 h, Mean±SD ([7]; nominal conc. 800 nM): 800.01 ± 77.30 nM; At -80 °C for 48 h, RE ([7]; nominal conc. 800 nM): 11.14%; Extracted samples at 8 °C for 18 h, Mean±SD ([7]; nominal conc. 800 nM): 826.40 ± 51.24 nM; Extracted samples at 8 °C for 18 h, RE ([7]; nominal conc. 800 nM): 10.42%; Short-term stability at room temperature for 6 h, Mean±SD ([7]; nominal conc. 800 nM): 737.30 ± 34.89 nM; Short-term stability at room temperature for 6 h, RE ([7]; nominal conc. 800 nM): -11.11%; Three freeze-thaw cycles (-80 °C ↔ 23 °C), Mean±SD ([7]; nominal conc. 800 nM): 739.78 ± 39.17 nM; Three freeze-thaw cycles (-80 °C ↔ 23 °C), RE ([7]; nominal conc. 800 nM): -11.08% |
